Molecular target: T1, CDK2 (Homo sapiens, UniProt P24941)
T1 construct: endogenous in cells; host or cells: OVCAR3 cells
Experiment: Phospho-RB measurement in OVCAR3 cells (HTRF phospho-RB cellular kit)
Type: cell-based
Conditions: inhibition of RB phosphorylation at S807/811 (HTRF, TR-FRET ratio 665/620), 24 h compound treatment, 0.3 to 10,000 nM
In short: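 IC50 came from a four-parameter logistic fit of the DMSO-normalized TR-FRET ratio (665/620 nm). That ratio reflects RB phosphorylation at S807/811, read with an HTRF antibody pair 4 h after adding lysate at room temperature.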

| IC50 | Structure (SMILES) |
| --- | --- |
| 9.41 µM | O=S1(=O)CC2(CC(Nc3nccc(-c4sc(C56CC(C5)C6)nc4-c4cccc(NS(=O)(=O)N5CC6CCC5CC6)c4F)n3)C2)C1 [Example 267, (1s,4s)-N-(3-(2-(bicyclo[1.1.1]pentan-]-yl)-5-(2-((2,2-dioxido-2-thiaspiro-[3.3]heptan-6-yl)amino)pyrimidin-4-yl)thiazol-4-yl)-2-fluorophenyl)-2-azabicyclo[2.2.2] octane-2-sulfonamide] |
| 8.31 µM | O=S1(=O)CC2(CC(Nc3nccc(-c4sc(C56CC(C5)C6)nc4-c4cccc(NS(=O)(=O)N5C6CCC5c5ccccc56)c4F)n3)C2)C1 [Example 268, N-(3-(2-(bicyclo [1.1.1]pentan-1-yl)-5-(2-((2,2-dioxido-2-thiaspiro[3.3]heptan-6-yl)amino)-pyrimidin-4-yl)thiazol-4-yl)-2-fluorophenyl)-1,2,3,4-tetrahydro-1,4-epiminonaphthalene-9-sulfonamide] |
| 0.0706 µM | CS(=O)(=O)CC12CC(Nc3nccc(-c4sc(C56CC(C5)C6)nc4-c4cccc(NS(=O)(=O)N5CCc6ccc(Cl)cc65)c4F)n3)(C1)C2 [Example 269, N-(3-(2-(bicyclo [1.1.1]pentan-1-yl)-5-(2-((3-((methylsulfonyl)methyl)bicyclo-[1.1.1]pentan-1-yl)amino)pyrimidin-4-yl)thiazol-4-yl)-2-fluorophenyl)-6-chloroindoline-1-sulfonamide] |
| 3.43 µM | O=S1(=O)CC2(CC(Nc3nccc(-c4sc(C56CC(C5)C6)nc4-c4cccc(NS(=O)(=O)N5CC6CCC(CC6)C5)c4F)n3)C2)C1 [Example 270, (1s,5s)-N-(3-(2-(bicyclo[1.1.1]pentan-1-yl)-5-(2-((2,2-dioxido-2-thiaspiro[3.3]-heptan-6-yl)-amino)pyrimidin-4-yl)thiazol-4-yl)-2-fluorophenyl)-3-azabicyclo[3.2.2] nonane-3-sulfonamide] |
| 8.15 µM | N=S1(=O)CC2(CC(Nc3nccc(-c4sc(C56CC(C5)C6)nc4-c4cccc(NS(=O)(=O)N5CCc6ccccc65)c4F)n3)C2)C1 (stereo not drawn) [Example 271, N-(3-(2-(bicyclo [1.1.1]pentan-1-yl)-5-(2-((2-imino-2-oxido-26-thiaspiro[3.3]-heptan-6-yl)-amino)pyrimidin-4-yl)thiazol-4-yl)-2-fluorophenyl) indoline-1-sulfonamide] |
| 0.35 µM | O=S1(=O)CC2(CC(Nc3nccc(-c4sc(C56CC(C5)C6)nc4-c4cccc(NS(=O)(=O)N5CCOc6ccccc6C5)c4F)n3)C2)C1 [Example 272, N-(3-(2-(bicyclo [1.1.1]pentan-1-yl)-5-(2-((2,2-dioxido-2-thiaspiro[3.3]heptan-6-yl)amino)-pyrimidin-4-yl)thiazol-4-yl)-2-fluorophenyl)-2,3-dihydrobenzo-[f][1,4]oxazepine-4(5H)-sulfonamide] |
| 3.28 µM | O=S1(=O)CC2(CC(Nc3nccc(-c4sc(C56CC(C5)C6)nc4-c4cccc(NS(=O)(=O)N5CCOCc6ccccc65)c4F)n3)C2)C1 [Example 273, N-(3-(2-(bicyclo [1.1.1]pentan-1-yl)-5-(2-((2,2-dioxido-2-thiaspiro[3.3]heptan-6-yl)amino)-pyrimidin-4-yl)thiazol-4-yl)-2-fluorophenyl)-2,3-dihydrobenzo-[e][1,4]oxazepine-1(5H)-sulfonamide] |
| 0.13 µM | CN1CCN(S(=O)(=O)Nc2cccc(-c3nc(C45CC(C4)C5)sc3-c3ccnc(NC4CC5(C4)CS(=O)(=O)C5)n3)c2F)c2ccccc21 [Example 274, N-(3-(2-(bicyclo [1.1.1]pentan-1-yl)-5-(2-((2,2-dioxido-2-thiaspiro[3.3]heptan-6-yl)amino)-pyrimidin-4-yl)thiazol-4-yl)-2-fluorophenyl)-4-methyl-3,4-dihydro-quinoxaline-1(2H)-sulfonamide] |
| 0.339 µM | CN1CCN(S(=O)(=O)Nc2cccc(-c3nc(C45CC(C4)C5)sc3-c3ccnc(NC4CC5(C4)CS(=O)(=O)C5)n3)c2F)Cc2ccccc21 [Example 275, N-(3-(2-(bicyclo [1.1.1]pentan-1-yl)-5-(2-((2,2-dioxido-2-thiaspiro[3.3]heptan-6-yl)amino)-pyrimidin-4-yl)thiazol-4-yl)-2-fluorophenyl)-1-methyl-1,2,3,5-tetrahydro-4H-benzo[e][1,4]-diazepine-4-sulfonamide] |
| 0.192 µM | CS(=O)(=O)[C@H]1CC[C@H](Nc2nccc(-c3sc(C45CC(F)(C4)C5)nc3-c3cccc(NS(=O)(=O)N4CCc5ccc(C(F)(F)F)cc54)c3F)n2)CC1 [Example 276, N-(2-fluoro-3-(2-(3-fluorobicyclo-[1.1.1]pentan-1-yl)-5-(2-(((1s,4s)-4-(methylsulfonyl)-cyclohexyl)amino)-pyrimidin-4-yl)thiazol-4-yl)phenyl)-6-(trifluoromethyl) indoline-1-sulfonamide] |
| 0.111 µM | O=S1(=O)CC2(CC(Nc3nccc(-c4sc(C56CC(F)(C5)C6)nc4-c4cccc(NS(=O)(=O)N5CCc6ccc(C(F)(F)F)cc65)c4F)n3)C2)C1 [Example 277, N-(3-(5-(2-((2,2-dioxido-2-thiaspiro-[3.3]-heptan-6-yl)amino)pyrimidin-4-yl)-2-(3-fluorobicyclo [1.1.1]pentan-1-yl)-thiazol-4-yl)-2-fluorophenyl)-6-(trifluoromethyl) indoline-1-sulfonamide] |
| 0.103 µM | O=S1(=O)CC2(CC(Nc3nccc(-c4sc(C56CC(C(F)F)(C5)C6)nc4-c4cccc(NS(=O)(=O)N5CCc6ccc(C(F)(F)F)cc65)c4F)n3)C2)C1 [Example 278, N-(3-(2-(3-(difluoromethyl)bicyclo-[1.1.1]-pentan-1-yl)-5-(2-((2,2-dioxido-2-thiaspiro[3.3]heptan-6-yl)amino)-pyrimidin-4-yl)thiazol-4-yl)-2-fluorophenyl)-6-(trifluoromethyl)-indoline-1-sulfonamide] |
| 0.409 µM | O=S1(=O)CC2(CC(Nc3nccc(-c4sc(C56CC(C(F)(F)F)(C5)C6)nc4-c4cccc(NS(=O)(=O)N5CCc6ccc(C(F)(F)F)cc65)c4F)n3)C2)C1 [Example 279, N-(3~(5-(2-((2,2-dioxido-2-thiaspiro-[3.3]heptan-6-yl)amino)pyrimidin-4-yl)-2-(3-(trifluoromethyl)bicyclo[1.1.1]-pentan-1-yl)thiazol-4-yl)-2-fluoro-phenyl)-6-(trifluoromethyl) indoline-1-sulfonamide] |
| 0.285 µM | O=S1(=O)CC2(CC(Nc3nccc(-c4sc(C56CC(C(F)(F)F)(C5)C6)nc4-c4cccc(NS(=O)(=O)N5CCc6ccc(Cl)cc65)c4F)n3)C2)C1 [Example 280, 6-chloro-N-(3-(5-(2-((2,2-dioxido-2-thiaspiro[3.3]heptan-6-yl)amino)-pyrimidin-4-yl)-2-(3-(trifluoromethyl)-bicyclo[1.1.1]pentan-1-yl)thiazol-4-yl)-2-fluorophenyl) indoline-1-sulfonamide] |
| 0.739 µM | O=S1(=O)CC2(CC(Nc3nccc(-c4sc(C56CC(C(F)(F)F)(C5)C6)nc4-c4cccc(NS(=O)(=O)N5CCc6ccccc65)c4F)n3)C2)C1 [Example 281] |
| 0.357 µM | CS(=O)(=O)[C@H]1CC[C@H](Nc2nccc(-c3sc(C4(C(F)(F)F)CC4)nc3-c3cccc(NS(=O)(=O)N4CCc5ccc(C(F)(F)F)cc54)c3F)n2)CC1 [Example 282, N-(2-fluoro-3-(5-(2-(((1r,4r)-4-(methylsulfonyl)cyclohexyl)amino)pyrimidin-4-yl)-2-(1-(trifluoromethyl)-cyclopropyl)thiazol-4-yl)phenyl)-6-(trifluoromethyl) indoline-1-sulfonamide] |
| 0.2 µM | CS(=O)(=O)[C@H]1CC[C@H](Nc2nccc(-c3sc(C4(C(F)(F)F)CC4)nc3-c3cccc(NS(=O)(=O)N4CCc5ccc(Cl)cc54)c3F)n2)CC1 [Example 283, 6-chloro-N-(2-fluoro-3-(5-(2-(((1r,4r)-4-(methylsulfonyl)cyclohexyl)amino)pyrimidin-4-yl)-2-(1-(trifluoromethyl)-cyclopropyl)thiazol-4-yl)phenyl)-indoline-1-sulfonamide] |
| 0.384 µM | CS(=O)(=O)[C@H]1CC[C@H](Nc2nccc(-c3sc(C4(C(F)(F)F)CC4)nc3-c3cccc(NS(=O)(=O)N4CCc5ccccc54)c3F)n2)CC1 [Example 284, N-(2-fluoro-3-(5-(2-(((11,4r)-4-(methylsulfonyl)cyclohexyl)amino)pyrimidin-4-yl)-2-(1-(trifluoromethyl)-cyclopropyl)thiazol-4-yl)phenyl)-indoline-1-sulfonamide] |
| 3.06 µM | CC1(S(C)(=O)=O)CCC(Nc2nccc(-c3sc(C45CC(C(F)(F)F)(C4)C5)nc3-c3cccc(NS(=O)(=O)N4CCc5ccccc54)c3F)n2)CC1 (stereo not drawn) [Example 285, N-(2-fluoro-3-(5-(2-((4-methyl-4-(methylsulfonyl)cyclohexyl)amino)pyrimidin-4-yl)-2-(3-(trifluoromethyl)bicyclo-[1.1.1]pentan-1-yl)thiazol-4-yl)phenyl)-indoline-1-sulfonamide] |
| 0.574 µM | O=S1(=O)CC2(CC(Nc3nccc(-c4sc(C5(C(F)(F)F)CC5)nc4-c4cccc(NS(=O)(=O)N5CCc6ccc(C(F)(F)F)cc65)c4F)n3)C2)C1 [Example 286, N-(3-(5-(2-((2,2-dioxido-2-thiaspiro-[3.3]heptan-6-yl)amino)pyrimidin-4-yl)-2-(1-(trifluoromethyl)cyclopropyl)-thiazol-4-yl)-2-fluorophenyl)-6-(trifluoromethyl) indoline-1-sulfonamide] |
| 0.347 µM | O=S1(=O)CC2(CC(Nc3nccc(-c4sc(C5(C(F)(F)F)CC5)nc4-c4cccc(NS(=O)(=O)N5CCc6ccc(Cl)cc65)c4F)n3)C2)C1 [Example 287, 6-chloro-N-(3-(5-(2-((2,2-dioxido-2-thiaspiro[3.3]heptan-6-yl)amino)-pyrimidin-4-yl)-2-(1-(trifluoromethyl)-cyclopropyl)thiazol-4-yl)-2-fluoro-phenyl)indoline-1-sulfonamide] |
